Reference: US11987586B1 (TAKEDA PHARMACEUTICAL COMPANY LIMITED, priority 2022, dated 2024)

Molecular target: T1, human OX2 receptor (Homo sapiens, UniProt O43614)
T1 construct: expressed in transfected cells
T1 sequence (O43614 1-444): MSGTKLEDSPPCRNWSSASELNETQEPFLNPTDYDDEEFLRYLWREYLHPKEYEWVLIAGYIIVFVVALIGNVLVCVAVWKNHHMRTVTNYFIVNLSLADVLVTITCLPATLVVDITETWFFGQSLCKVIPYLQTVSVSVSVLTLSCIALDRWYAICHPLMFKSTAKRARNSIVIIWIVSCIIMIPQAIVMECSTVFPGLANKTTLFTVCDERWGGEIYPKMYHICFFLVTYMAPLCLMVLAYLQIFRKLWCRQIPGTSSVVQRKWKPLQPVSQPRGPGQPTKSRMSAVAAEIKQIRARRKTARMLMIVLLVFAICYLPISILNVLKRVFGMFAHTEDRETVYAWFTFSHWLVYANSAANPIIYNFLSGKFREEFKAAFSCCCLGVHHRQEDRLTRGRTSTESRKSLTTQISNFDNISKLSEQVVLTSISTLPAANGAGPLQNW
Assay: Measurement of orexin type 2 receptor agonist activity (calcium fluorescence, Fluo-4, FDSS)
Format: cell-based
Details: 3 uM test compound; CHO cells expressing human OX2 receptor; DMSO = 0%, 10 nM orexin A (human) = 100%
Summary of the method: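 Agonist activity (%) was normalised to the response to 10 nM final human orexin A (100%) and to the DMSO vehicle (0%). The response was measured as the Fluo-4 calcium signal, read kinetically over 1 min 40 s after compound addition to Fluo-4/probenecid-loaded stable CHO-K1 clones expressing human OX2 (aa 1-444).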

First: CCS(=O)(=O)N[C@@H]1Cn2c(cn(-c3noc4nc(C5CC5)cc(-c5c(F)cccc5F)c34)c2=O)C1(F)F [Example 211, N-{(6R)-2-[6-cyclopropyl-4-(2,6-difluorophenyl)[1,2]oxazolo[5,4-b]pyridin-3-yl]-7,7-difluoro-3-oxo-2,5,6,7-tetrahydro-3H-pyrrolo[1,2-c]imidazol-6-yl}ethanesulfonamide]
Second: CCS(=O)(=O)N[C@@H]1Cn2c(cn(-c3noc4cc(C)cc(-c5c(F)cccc5F)c34)c2=O)C1(F)F [Example 156, N-{(6R)-2-[4-(2,6-difluorophenyl)-6-methyl-1,2-benzoxazol-3-yl]-7,7-difluoro-3-oxo-2,5,6,7-tetrahydro-3H-pyrrolo[1,2-c]imidazol-6-yl}ethanesulfonamide]
The “OX2R agonist activity (3 uM, %)” value of the first is higher: 108% for the first, 102% for the second.

Going from `CS(=O)(=O)N[C@@H]1CN2C(=O)N(c3noc4cc(Cl)c(F)c(-c5c(F)cc(F)cc5F)c34)C[C@@H]2C1(F)F` [Example 40, N-{(6R,7aR)-2-[6-chloro-5-fluoro-4-(2,4,6-trifluorophenyl)-1,2-benzoxazol-3-yl]-7,7-difluoro-3-oxohexahydro-1H-pyrrolo[1,2-c]imidazol-6-yl}methanesulfonamide] to `CS(=O)(=O)N[C@@H]1CN2C(=O)N(c3noc4cc(Cl)c(F)c(-c5c(F)cccc5F)c34)C[C@@H]2C1(F)F` [Example 107, N-{(6R,7aR)-2-[6-chloro-4-(2,6-difluorophenyl)-5-fluoro-1,2-benzoxazol-3-yl]-7,7-difluoro-3-oxohexahydro-1H-pyrrolo[1,2-c]imidazol-6-yl}methanesulfonamide], the “OX2R agonist activity (3 uM, %)” value falls from 103% to 101%.

Going from `CCS(=O)(=O)N[C@H]1C[C@H]2CN(c3noc4cc(C5CC5)cc(-c5c(F)cccc5F)c34)C(=O)N2C1` [Example 56, N-{(6S,7aS)-2-[6-cyclopropyl-4-(2,6-difluorophenyl)-1,2-benzoxazol-3-yl]-3-oxohexahydro-1H-pyrrolo[1,2-c]imidazol-6-yl}ethanesulfonamide] to `CCS(=O)(=O)N[C@@H]1CN2C(=O)N(c3noc4cccc(-c5c(F)cccc5F)c34)CC[C@@H]2C1(F)F` [Example 262], the “OX2R agonist activity (3 uM, %)” value rises from 99% to 114%.

Going from `CS(=O)(=O)N[C@@H]1CN2C(=O)N(c3noc4cccc(-c5c(F)cccc5F)c34)C[C@H]2CC1(F)F` (relative stereo) [Example 216, rel-N-{(6R,8aR)-2-[4-(2,6-difluorophenyl)-1,2-benzoxazol-3-yl]-7,7-difluoro-3-oxooctahydroimidazo[1,5-a]pyridin-6-yl}methanesulfonamide] to `CS(=O)(=O)N[C@@H]1CN2C(=O)N(c3noc4cccc(-c5ccccc5F)c34)CC[C@@H]2C1(F)F` [Example 273, N-{(4aR,6R)-5,5-difluoro-2-[4-(2-fluorophenyl)-1,2-benzoxazol-3-yl]-1-oxooctahydropyrrolo[1,2-c]pyrimidin-6-yl}methanesulfonamide], the “OX2R agonist activity (3 uM, %)” value rises from 101% to 103%.

Going from `CCS(=O)(=O)N[C@@H]1CN2C(=O)N(c3noc4cccc(-c5ccccc5C)c34)CC[C@@H]2C1(F)F` [Example 325, N-{(4aR,6R)-5,5-difluoro-2-[4-(2-methylphenyl)-1,2-benzoxazol-3-yl]-1-oxooctahydropyrrolo[1,2-c]pyrimidin-6-yl}ethanesulfonamide] to `CCS(=O)(=O)N[C@@H]1CN2C(=O)N(c3noc4cccc(C5CCC5)c34)CC[C@@H]2C1(F)F` [Example 331, N-[(4aR,6R)-2-(4-cyclobutyl-1,2-benzoxazol-3-yl)-5,5-difluoro-1-oxooctahydropyrrolo[1,2-c]pyrimidin-6-yl]ethanesulfonamide], the “OX2R agonist activity (3 uM, %)” value falls from 101% to 45%.

Going from `CCS(=O)(=O)N[C@@H]1Cn2c(cn(-c3noc4cc(C)c(F)c(-c5c(F)cc(F)cc5F)c34)c2=O)C1(F)F` [Example 163, N-{(6R)-7,7-difluoro-2-[5-fluoro-6-methyl-4-(2,4,6-trifluorophenyl)-1,2-benzoxazol-3-yl]-3-oxo-2,5,6,7-tetrahydro-3H-pyrrolo[1,2-c]imidazol-6-yl}ethanesulfonamide] to `CCS(=O)(=O)N[C@@H]1Cn2c(cn(-c3noc4cc(COC)cc(-c5c(F)cc(F)cc5F)c34)c2=O)C1(F)F` [Example 166, N-{(6R)-7,7-difluoro-2-[6-(methoxymethyl)-4-(2,4,6-trifluorophenyl)-1,2-benzoxazol-3-yl]-3-oxo-2,5,6,7-tetrahydro-3H-pyrrolo[1,2-c]imidazol-6-yl}ethanesulfonamide], the “OX2R agonist activity (3 uM, %)” value falls from 103% to 92%.

Going from `CCS(=O)(=O)N[C@@H]1CN2C(=O)N(c3noc4ccc(F)c(-c5c(F)cc(F)cc5F)c34)C[C@@H]2C1(F)F` [Example 105, N-{(6R,7aR)-7,7-difluoro-2-[5-fluoro-4-(2,4,6-trifluorophenyl)-1,2-benzoxazol-3-yl]-3-oxohexahydro-1H-pyrrolo[1,2-c]imidazol-6-yl}ethanesulfonamide] to `CCS(=O)(=O)N[C@@H]1CN2C(=O)N(c3noc4cc(F)c(F)c(-c5c(F)cc(F)cc5F)c34)C[C@@H]2C1(F)F` [Example 172, N-{(6R,7aR)-2-[5,6-difluoro-4-(2,4,6-trifluorophenyl)-1,2-benzoxazol-3-yl]-7,7-difluoro-3-oxohexahydro-1H-pyrrolo[1,2-c]imidazol-6-yl}ethanesulfonamide], the “OX2R agonist activity (3 uM, %)” value rises from 96% to 98%.

Compared with `CCS(=O)(=O)N[C@@H]1Cn2c(cn(-c3noc4cc(Cl)c(F)c(-c5c(F)cccc5F)c34)c2=O)C1(F)F` [Example 78, N-{(6R)-2-[6-chloro-4-(2,6-difluorophenyl)-5-fluoro-1,2-benzoxazol-3-yl]-7,7-difluoro-3-oxo-2,5,6,7-tetrahydro-3H-pyrrolo[1,2-c]imidazol-6-yl}ethanesulfonamide], `O=C1N(c2noc3cc(F)c(F)c(-c4c(F)cccc4F)c23)CC[C@H]2N1C[C@@H](NS(=O)(=O)CF)C2(F)F` [Example 313, N-{(4aR,6R)-2-[4-(2,6-difluorophenyl)-5,6-difluoro-1,2-benzoxazol-3-yl]-5,5-difluoro-1-oxooctahydropyrrolo[1,2-c]pyrimidin-6-yl}-1-fluoromethanesulfonamide] is lower in “OX2R agonist activity (3 uM, %)” value: 104% for the first, 99% for the second.

Going from `CCS(=O)(=O)N[C@@H]1CN2C(=O)N(c3noc4cccc(N5CCCCC5)c34)CC[C@@H]2C1(F)F` [Example 333, N-{(4aR,6R)-5,5-difluoro-1-oxo-2-[4-(piperidin-1-yl)-1,2-benzoxazol-3-yl]octahydropyrrolo[1,2-c]pyrimidin-6-yl}ethanesulfonamide] to `O=C1N(c2noc3cccc(-c4c(F)cc(F)cc4F)c23)CC[C@H]2N1C[C@@H](NS(=O)(=O)C1CC1)C2(F)F` [Example 242, N-{(4aR,6R)-5,5-Difluoro-1-oxo-2-[4-(2,4,6-trifluorophenyl)-1,2-benzoxazol-3-yl]octahydropyrrolo[1,2-c]pyrimidin-6-yl}cyclopropanesulfonamide], the “OX2R agonist activity (3 uM, %)” value rises from 68% to 105%.

First: CCOc1cc(-c2c(F)cc(F)cc2F)c2c(N3C[C@H]4N(C[C@@H](NS(C)(=O)=O)C4(F)F)C3=O)noc2c1 [Example 160, N-{(6R,7aR)-2-[6-ethoxy-4-(2,4,6-trifluorophenyl)-1,2-benzoxazol-3-yl]-7,7-difluoro-3-oxohexahydro-1H-pyrrolo[1,2-c]imidazol-6-yl}methanesulfonamide]
Second: CS(=O)(=O)N[C@@H]1CN2C(=O)N(c3noc4cc(F)cc(-c5c(F)cc(F)cc5F)c34)CC[C@@H]2C1(F)F [Example 208, N-{(4aR,6R)-5,5-difluoro-2-[6-fluoro-4-(2,4,6-trifluorophenyl)-1,2-benzoxazol-3-yl]-1-oxooctahydropyrrolo[1,2-c]pyrimidin-6-yl}methanesulfonamide]
The “OX2R agonist activity (3 uM, %)” value of the first is lower: 99% for the first, 102% for the second.

First: O=C1N(c2noc3ccc(F)c(-c4c(F)cc(F)cc4F)c23)CC[C@H]2N1C[C@@H](NS(=O)(=O)C1CC1)C2(F)F [Example 234, N-{(4aR,6R)-5,5-difluoro-2-[5-fluoro-4-(2,4,6-trifluorophenyl)-1,2-benzoxazol-3-yl]-1-oxooctahydropyrrolo[1,2-c]pyrimidin-6-yl}cyclopropanesulfonamide]
Second: COCc1cc(-c2c(F)cc(F)cc2F)c2c(N3CC[C@H]4N(C[C@@H](NS(=O)(=O)C5CC5)C4(F)F)C3=O)noc2c1 [Example 222, N-{(4aR,6R)-5,5-difluoro-2-[6-(methoxymethyl)-4-(2,4,6-trifluorophenyl)-1,2-benzoxazol-3-yl]-1-oxooctahydropyrrolo[1,2-c]pyrimidin-6-yl}cyclopropanesulfonamide]
The “OX2R agonist activity (3 uM, %)” value of the first is higher: 111% for the first, 107% for the second.

With `COCc1cc2onc(N3CC[C@H]4N(C[C@@H](NS(C)(=O)=O)C4(F)F)C3=O)c2c(-c2c(F)cc(F)cc2F)c1F` [Example 227, N-{(4aR,6R)-5,5-difluoro-2-[5-fluoro-6-(methoxymethyl)-4-(2,4,6-trifluorophenyl)-1,2-benzoxazol-3-yl]-1-oxooctahydropyrrolo[1,2-c]pyrimidin-6-yl}methanesulfonamide] the “OX2R agonist activity (3 uM, %)” value was 98%.
